The text below walks through data of patent EP0394868A1, “New antibiotics NK372135, process for the production thereof and use thereof” (Nippon Kayaku Kabushiki Kaisha, priority 1989, dated 1990).

Converted amounts (≈) assume the structure as drawn.

Holding throughout (format): cell-based
The subject of one data set is Li-7. The data set is described as follows: Cytotoxicity, growth inhibition by methylene blue method. Conditions: RPMI 1640, 10% fetal calf serum, two to four days with compound; for IC50: 96 h, read-out: Cytotoxicity IC₅₀. The procedure: (§1) The cytotoxicities of NK372135A, B and C and methoxy-xanthocillin monomethyl ether (XTM) which is an analog thereof were examined. 2,000 cells of each of G361, SW1116, PC-3 and Li-7 cell strains were inoculated into a 96-well plate and incubated at 37°C under 5% CO₂ for 24 hours. An RPMI 1640 medium containing 10% of fetal calf serum was employed as a medium. After incubating for 24 hours, a test compound of a given concentration was added thereto and the incubation was further conducted for two to four days. Subsequently, the cells were counted by the methylene blue method so as to evaluate the extent of the growth inhibition.

In the next data set the test system is SW1116. The data set is described as above. The conditions noted are these: Homo sapiens, SW 1116, 96 h, RPMI 1640, 10% fetal calf serum, two to four days with compound, read-out: Cytotoxicity IC₅₀. The procedure: as §1
The subject of a further data set is G361. The description is as above. Conditions: Homo sapiens, G-361, 96 h, RPMI 1640, 10% fetal calf serum, two to four days with compound, read-out: Cytotoxicity IC₅₀. The procedure: as §1
The next data set has as its system PC-3. The description is as above. Conditions: Homo sapiens, 96 h, RPMI 1640, 10% fetal calf serum, two to four days with compound, read-out: Cytotoxicity IC₅₀. As to the method: as §1
Another data set deals with Staphylococcus aureus. The data set is described as follows: Antimicrobial spectrum, paper disc agar diffusion. Conditions: 8 mm paper disc, 100 µg/ml solution, 37°C for a day and night, read-out: Diameter of inhibition zone (mm). The procedure:
(§2) The antimicrobial spectra of the compounds of the present invention were examined.
(§3) Table 1 gives the antimicrobial spectra of NK372135A, C and D. A paper disc of 8 mm in diameter was immersed in a solution containing 100 µg/ml of NK372135A, C or D and then placed on an agar medium in which a test strain had been grown. Regarding the four strains listed in the upper part of Table 1 and Candida albicans, each culture was conducted at 37°C for a day and night, while other strains were cultured at 25°C for a day and night. Then the diameter of each inhibition zone thus formed was measured. […] Since no existing antifungal agent exerts a satisfactory effect on fungi, the compounds of the present invention are highly expected as effective antifungal agents.
(Agar diffusion results depend on both activity and mobility in agar.)

Another data set has as its system Mycobacterium smegmatis. The data set is described as follows: Antimicrobial spectrum, paper disc agar diffusion. Conditions: Mycolicibacterium smegmatis, 8 mm paper disc, 100 µg/ml solution, 37°C for a day and night, read-out: Diameter of inhibition zone (mm). As to the method:
as §2, §3

A further data set concerns Botrytis fabae. The data set is described as follows: Antimicrobial spectrum, paper disc agar diffusion. The conditions noted are these: 8 mm paper disc, 100 µg/ml solution, 25°C for a day and night, read-out: Diameter of inhibition zone (mm). As to the method:
as §2, §3

Data set [1] deals with Candida albicans. The data set is described as follows: Antimicrobial spectrum, paper disc agar diffusion. Conditions: 8 mm paper disc, 100 µg/ml solution, 37°C for a day and night, read-out: Diameter of inhibition zone (mm). As to the method: as §2, §3
The subject of the next data set is Mycosphaerella melonis. As to the kind of experiment: Antimicrobial spectrum, paper disc agar diffusion. Conditions: 8 mm paper disc, 100 µg/ml solution, 25°C for a day and night, read-out: Diameter of inhibition zone (mm). The procedure: as §2, §3
Another data set deals with Mucor japonicus. The data set is described as follows: Antimicrobial spectrum, paper disc agar diffusion. Conditions: 8 mm paper disc, 100 µg/ml solution, 25°C for a day and night, read-out: Diameter of inhibition zone (mm). As to the method:
as §2, §3

The next data set has as its system Aspergillus oryzae. The data set is described as follows: Antimicrobial spectrum, paper disc agar diffusion. Conditions: 8 mm paper disc, 100 µg/ml solution, 25°C for a day and night, read-out: Diameter of inhibition zone (mm). As to the method:
as §2, §3

The test system of the next data set is Saccharomyces cerevisiae. The data set is described as follows: Antimicrobial spectrum, paper disc agar diffusion. The conditions noted are these: 8 mm paper disc, 100 µg/ml solution, 25°C for a day and night, read-out: Diameter of inhibition zone (mm). The procedure:
as §2, §3

The subject of the next data set is Fusarium roseum. As to the kind of experiment: Antimicrobial spectrum, paper disc agar diffusion. Conditions: Fusarium sambucinum, read-out: Diameter of inhibition zone (mm). The procedure: as §2, §3
Data set [2] relates to Trichophyton mentagrophytes. The data set is described as follows: Antimicrobial spectrum, paper disc agar diffusion. Conditions: 8 mm paper disc, 100 µg/ml solution, 25°C for a day and night, read-out: Diameter of inhibition zone (mm). The procedure:
as §2, §3

For a further data set, the system named is Escherichia coli. As to the kind of experiment: Antimicrobial spectrum, paper disc agar diffusion. Conditions: 8 mm paper disc, 100 µg/ml solution, 37°C for a day and night, read-out: Diameter of inhibition zone (mm). As to the method:
as §2, §3

For a further data set, the system named is Bacillus subtilis. As to the kind of experiment: Antimicrobial spectrum, paper disc agar diffusion. The conditions noted are these: 8 mm paper disc, 100 µg/ml solution, 37°C for a day and night, read-out: Diameter of inhibition zone (mm). As to the method: as §2, §3
A further data set has as its target T1, 5-lipoxygenase (Cavia porcellus, UniProt A0A286X958).
T1 construct: the peritoneal cells of the animals were collected; endogenous in cells; host or cells: casein-elicited peritoneal cells of Hartley guinea pigs
T1 sequence (A0A286X958 1-674): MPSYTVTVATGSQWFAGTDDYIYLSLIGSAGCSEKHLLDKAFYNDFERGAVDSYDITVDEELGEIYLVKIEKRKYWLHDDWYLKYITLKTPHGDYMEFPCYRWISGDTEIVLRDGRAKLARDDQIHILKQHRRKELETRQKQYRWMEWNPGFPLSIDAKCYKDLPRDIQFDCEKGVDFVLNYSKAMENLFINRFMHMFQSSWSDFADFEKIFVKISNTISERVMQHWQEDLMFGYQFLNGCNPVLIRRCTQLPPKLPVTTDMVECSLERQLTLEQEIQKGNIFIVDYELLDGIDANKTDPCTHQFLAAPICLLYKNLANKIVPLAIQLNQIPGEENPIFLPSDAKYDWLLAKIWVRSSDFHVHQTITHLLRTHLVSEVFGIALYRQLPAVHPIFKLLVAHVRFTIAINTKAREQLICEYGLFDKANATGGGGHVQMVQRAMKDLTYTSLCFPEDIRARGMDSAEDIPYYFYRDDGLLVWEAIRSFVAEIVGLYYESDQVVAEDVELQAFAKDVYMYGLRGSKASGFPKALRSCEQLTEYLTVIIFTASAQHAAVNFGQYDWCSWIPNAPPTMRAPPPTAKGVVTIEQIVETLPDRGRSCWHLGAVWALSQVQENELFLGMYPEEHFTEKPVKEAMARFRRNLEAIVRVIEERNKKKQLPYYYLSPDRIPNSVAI
The data set is described as follows: 5-lipoxygenase inhibitory activity in ionophore-stimulated peritoneal cells (5-HETE by HPLC). The conditions noted are these: Guinea pig peritoneal cells, ionophore A 23187 + arachidonic acid. The procedure: The 5-lipoxygenase inhibitory activities of the compounds of the present invention were examined.
The 5-lipoxygenase inhibitory activity was evaluated from the inhibitory activity on ionophore stimulation on Guinea pig peritoneal cells in the following manner.
A 2% casein solution was intraperitoneally administered to Hartley Guinea pigs weighing 250 to 350 g. 18 hours after the administration, the peritoneal cells of the animals were collected. The contaminating erythrocytes were hemolyzed and centrifuged. To the cell fraction thus obtained was added a 50 mM phosphate buffer solution (pH 7.0) containing […] of indomethacin and the concentration of the peritoneal cells was adjusted to 1 x 10⁷ cell/-ml. To 1.0 ml of the cell suspension thus obtained, a test compound of various concentrations was added so as to give a final concentration of 100 µM. Then the mixture was incubated at 37°C for five minutes. Next, 1.0 µg of lonophore A 23187 and 10 µg of arachidonic acid were added thereto and the reaction was initiated. After 20 minutes, the reaction was ceased by adding 4 ml of ethanol. The reaction supernatant was analyzed by HPLC in accordance with the method of Amano et al. [Vitamin, 59, 211 - 219 (1985)] so as to detect 5-hydroxyeicosatetraenoic acid (5-HETE) which was a metabolite derived from arachidonic acid.

The subject of data set [3] is Candida albicans. As to the kind of experiment: Anti-Candida activity, growth in bouillon medium (absorbance at 595 nm). Conditions: Candida albicans 2 x 10³ cell/well, 30°C for 16 hours. The procedure:
The anti-Candida activity of NK372135B was compared with that of methoxy-xanthocillin X dimethyl ether which is shown in The Journal of Antibiotics Vol 34 (1981) No. 12, P1556 ∼ 1561.
Candida albicans was inoculated into a 96-well plate at a density of 2 x 10³ cell/well with the use of 0.2 cc of a bouillon medium. Then a test compound of various concentrations was added thereto and the microorganism was incubated at 30°C for 16 hours. Then the absorbance of each well at 595 nm was measured and IC₅₀ was calculated from the dose response curve. […] Thus it was found out that the saturation of the double bond in methoxy-xanthocillin X dimethyl ether enhanced the anti-Candida activity.

As to `[C-]#[N+]C(=Cc1ccc(OC)cc1)C(Cc1ccc(OC)cc1)[N+]#[C-]` (centres unmarked) [NK372135A], the IC50 in the data set on Li-7 amounted to 1.45 µg/mL (≈ 4.55 µM); with SW1116, 1.65 µg/mL (≈ 5.18 µM); in the data set with G361 it was 2.13 µg/mL (≈ 6.69 µM); in the data set on PC-3 it was 1.05 µg/mL (≈ 3.3 µM). Besides, the zone of inhibition – broadly, the size of the clear area around the sample on an inoculated plate – at 100 µg/mL came out at 20.5 mm with Staphylococcus aureus; 21 mm with Mycobacterium smegmatis; 25 mm with Botrytis fabae; 30 mm in the data set on Candida albicans [1]; 18 mm in the data set with Mycosphaerella melonis; 15 mm with Mucor japonicus. The zone of inhibition at 100 µg/mL was 20 mm in the data set on Aspergillus oryzae; 25 mm in the data set with Saccharomyces cerevisiae; 9 mm in the data set with Fusarium roseum; 30 mm in [2]; 20 mm in the data set on Escherichia coli; 21.5 mm in the data set on Bacillus subtilis. Further, the “Inhibition ratio (%)” value amounted to 37.1% on 5-lipoxygenase (10⁻⁴ mol/ℓ), 5.0% at 5-lipoxygenase (10⁻⁵ mol/ℓ) and 0% at 5-lipoxygenase (10⁻⁶ mol/ℓ).
Consider `[C-]#[N+]C(=Cc1ccc(OC)c(OC)c1)C(Cc1ccc(OC)cc1)[N+]#[C-]` (centres unmarked) [NK372135B], for which the IC50 with Li-7 stood at 1.8 µg/mL (≈ 5.17 µM); with SW1116, 2.55 µg/mL (≈ 7.32 µM); in the data set with G361 it was 2.4 µg/mL (≈ 6.89 µM); with PC-3, 0.76 µg/mL (≈ 2.18 µM); in the data set with Candida albicans [3] (read-out: IC₅₀) it was 1.5 µg/mL (≈ 4.31 µM). Further, the “Inhibition ratio (%)” value was 33.3% on 5-lipoxygenase (10⁻⁴ mol/ℓ), 5.0% at 5-lipoxygenase (10⁻⁵ mol/ℓ) and 0% on 5-lipoxygenase (10⁻⁶ mol/ℓ).
Turning to `[C-]#[N+]C(=Cc1ccc(OC)c(O)c1)C(Cc1ccc(OC)cc1)[N+]#[C-]` (centres unmarked) [NK372135C], the IC50 in the data set with Li-7 worked out at 1.7 µg/mL (≈ 5.08 µM); in the data set on SW1116, 5.89 µg/mL (≈ 17.6 µM); in the data set with G361 it was 2.52 µg/mL (≈ 7.54 µM); in the data set on PC-3, 1.23 µg/mL (≈ 3.68 µM). Moreover, the zone of inhibition at 100 µg/mL in the data set on Staphylococcus aureus stood at 26 mm; in the data set with Botrytis fabae it was 25 mm; in the data set with Candida albicans [1], 25 mm; in the data set with Mycosphaerella melonis it was 19 mm; in the data set on Mucor japonicus, 17 mm; in the data set on Aspergillus oryzae, 21 mm. The zone of inhibition at 100 µg/mL in the data set with Saccharomyces cerevisiae worked out at 25 mm; with Fusarium roseum, 12 mm; in [2] it was 30 mm; with Escherichia coli, 29 mm; in the data set on Bacillus subtilis it was 28 mm. Also, the “Inhibition ratio (%)” value on 5-lipoxygenase (10⁻⁴ mol/ℓ) came to 100%; on 5-lipoxygenase (10⁻⁵ mol/ℓ) it was 25.5%; on 5-lipoxygenase (10⁻⁶ mol/ℓ) it was 12.9%.
`[C-]#[N+]C(=C\c1ccc(OC)cc1)/C(=C/c1ccc(OC)c(OC)c1)[N+]#[C-]` [methoxy-xanthocillin X dimethyl ether, reference compound]: the IC₅₀ in the data set with Candida albicans [3] was determined as 9.0 µg/mL.
For “methoxy-xanthocillin monomethyl ether [XTM, reference compound]”, the “Cytotoxicity IC₅₀” value in the data set on Li-7 came out at 0.57 µg/mL.
